Measured values reported in US20070010671A1, “Novel quinazoline derivatives and methods of treatment related to the use thereof” (priority 2003, published 2007).

Each molecule was assayed against MCH receptor (Homo sapiens, UniProt Q99705) (assay: High throughput functional screening FLIPR/FDSS6000: inhibition of MCH-evoked intracellular Ca2+ changes). Conditions: class by percent of control at 10^-7 M or IC50.
Type: cell-based
In short: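 Cells expressing constitutively active MCH receptor, loaded with 4 μM Fluo4-AM for 1 h at 37 °C, were pretreated 3 min with compound, then challenged with MCH (50 nM for antagonist testing). MCH-evoked [Ca2+]i transients followed by FLIPR or FDSS (ex 488/em 530 nm) over 290 s.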

With Cc1c(NC(=O)NC[C@H]2CC[C@@H](Nc3nc(N(C)C)c4ccccc4n3)CC2)cccc1[N+](=O)[O-] [compound 506, N-[(cis-4-{[4-(dimethylamino)quinazolin-2-yl]amino}cyclohexyl)methyl]-N′-(2-methyl-3-nitrophenyl)urea] as the molecule, how does the class read?
Its class is 1 (Class 1: The value of percent of control at 10^−7 M was less than 40% or the value of IC50 was less than 50 nM.).

How did the class turn out when COC(=O)c1ccc(NC(=S)N[C@H]2CC[C@@H](Nc3nc(N(C)C)c4ccccc4n3)CC2)cc1 [compound 278] was run?
Its class is 2 (Class 2: The value of percent of control at 10^−7 M was from 40% to 60% or the value of IC50 was from 50 nM to 200 nM.).

How did the class turn out when CN(C)c1nc(N[C@H]2CC[C@@H](NC(=S)Nc3ccc(OC(F)(F)F)cc3)CC2)nc2ccccc12 [compound 230] was run?
The class was 3 (Class 3: The value of percent of control at 10^−7 M was more than 60% or the value of IC50 was more than 200 nM.).

With CCCCc1ccc(NC(=S)N[C@H]2CC[C@@H](Nc3nc(N(C)C)c4ccccc4n3)CC2)cc1 [compound 281] as the molecule, how does the class read?
The class was 3 (Class 3: The value of percent of control at 10^−7 M was more than 60% or the value of IC50 was more than 200 nM.).

For CN(C)c1nc(N[C@H]2CC[C@@H](NC(=S)Nc3ccc(F)c(C(F)(F)F)c3)CC2)nc2ccccc12 [compound 236], which class is on record?
Its class is 3 (Class 3: The value of percent of control at 10^−7 M was more than 60% or the value of IC50 was more than 200 nM.).

For COc1ccc(Cl)cc1NC(=S)N[C@H]1CC[C@@H](Nc2nc(N(C)C)c3ccccc3n2)CC1 [compound 282], which class is on record?
The class was 3 (Class 3: The value of percent of control at 10^−7 M was more than 60% or the value of IC50 was more than 200 nM.).

Which class does the source give for CN(C)c1nc(N[C@H]2CC[C@@H](CNC(=S)NCCc3ccc(Cl)cc3)CC2)nc2ccccc12 [compound 666] here?
Its class is 3 (Class 3: The value of percent of control at 10^−7 M was more than 60% or the value of IC50 was more than 200 nM.).

How did the class turn out when CN(C)c1nc(N[C@H]2CC[C@@H](CNC(=S)Nc3ccccc3F)CC2)nc2ccccc12 [compound 642] was run?
The class was 3 (Class 3: The value of percent of control at 10^−7 M was more than 60% or the value of IC50 was more than 200 nM.).

With CCc1cccc(C(C)C)c1NC(=S)NC[C@H]1CC[C@@H](Nc2nc(N(C)C)c3ccccc3n2)CC1 [compound 597] as the molecule, how does the class read?
The class was 2 (Class 2: The value of percent of control at 10^−7 M was from 40% to 60% or the value of IC50 was from 50 nM to 200 nM.).

How did the class turn out when CN(C)c1nc(N[C@H]2CC[C@@H](CNC(=S)NCc3ccc4c(c3)OCO4)CC2)nc2ccccc12 [compound 604] was run?
Its class is 2 (Class 2: The value of percent of control at 10^−7 M was from 40% to 60% or the value of IC50 was from 50 nM to 200 nM.).

Which class does the source give for CN(C)c1nc(N[C@H]2CC[C@@H](NC(=S)NCc3cccc(Cl)c3)CC2)nc2ccccc12 [compound 305, N-(3-chlorobenzyl)-N′-(cis-4-{[4-(dimethylamino)quinazolin-2-yl]amino}cyclohexyl)thiourea] here?
The class was 1 (Class 1: The value of percent of control at 10^−7 M was less than 40% or the value of IC50 was less than 50 nM.).

With CCCCCCCCCCc1ccc(NC(=S)NC[C@H]2CC[C@@H](Nc3nc(N(C)C)c4ccccc4n3)CC2)cc1 [compound 738] as the molecule, how does the class read?
The class was 3 (Class 3: The value of percent of control at 10^−7 M was more than 60% or the value of IC50 was more than 200 nM.).

For CN(C)c1nc(N[C@H]2CC[C@@H](CNC(=O)Nc3ccc(C#N)cc3)CC2)nc2ccccc12 [compound 549, N-(4-cyanophenyl)-N′-[(cis-4-{[4-(dimethylamino)quinazolin-2-yl]amino}cyclohexyl)methyl]urea], which class is on record?
The class was 1 (Class 1: The value of percent of control at 10^−7 M was less than 40% or the value of IC50 was less than 50 nM.).

For CN(C)c1nc(N[C@H]2CC[C@@H](CNC(=S)Nc3cc(F)ccc3Br)CC2)nc2ccccc12 [compound 785], which class is on record?
Its class is 3 (Class 3: The value of percent of control at 10^−7 M was more than 60% or the value of IC50 was more than 200 nM.).

For CN(C)c1nc(N[C@H]2CC[C@@H](CNC(=O)Nc3ccc(Cc4ccccc4)cc3)CC2)nc2ccccc12 [compound 540], which class is on record?
The class was 3 (Class 3: The value of percent of control at 10^−7 M was more than 60% or the value of IC50 was more than 200 nM.).

Cc1ccc(F)c(NC(=O)NC[C@H]2CC[C@@H](Nc3nc(N(C)C)c4ccccc4n3)CC2)c1 [compound 497] was tested. Which class did it give?
Its class is 3 (Class 3: The value of percent of control at 10^−7 M was more than 60% or the value of IC50 was more than 200 nM.).

How did the class turn out when Cc1cccc(Cl)c1NC(=O)NC[C@H]1CC[C@@H](Nc2nc(N(C)C)c3ccccc3n2)CC1 [compound 489] was run?
The class was 1 (Class 1: The value of percent of control at 10^−7 M was less than 40% or the value of IC50 was less than 50 nM.).

Same assay, conditions: class by percent of control at 10^-7 M or by IC50; read-out: class

With CN(C)c1nc(N[C@H]2CC[C@@H](NC(=O)Nc3ccc(F)c([N+](=O)[O-])c3)CC2)nc2ccccc12 [compound 35] as the molecule, how does the IC50 read?
The IC50 was > 0.2 µM.

For CN(C)c1nc(N[C@H]2CC[C@@H](NC(=O)Nc3c(F)cccc3F)CC2)nc2ccccc12 [compound 25], which IC50 is on record?
Its IC50 is > 0.2 µM.

Which IC50 does the source give for CN(C)c1nc(N[C@H]2CC[C@@H](NC(=O)OCC(C)(C)C)CC2)nc2ccccc12 [compound 847] here?
The IC50 was > 0.2 µM.

How did the IC50 turn out when Cc1ccc(NC(=S)N[C@H]2CC[C@@H](Nc3nc(N(C)C)c4ccccc4n3)CC2)cc1 [compound 197, N-(cis-4-{[4-(dimethylamino)quinazolin-2-yl]amino}cyclohexyl)-N′-(4-methylphenyl)thiourea] was run?
Its IC50 is 0.05 to 0.2 µM.

With CSc1ccc(NC(=O)N[C@H]2CC[C@@H](Nc3nc(N(C)C)c4ccccc4n3)CC2)cc1 [compound 47, N-(cis-4-{[4-(dimethylamino)quinazolin-2-yl]amino}cyclohexyl)-N′-[4-(methylthio)phenyl]urea] as the molecule, how does the IC50 read?
The IC50 was < 0.05 µM.

How did the IC50 turn out when CN(C)c1nc(N[C@H]2CC[C@@H](NC(=O)NC(=O)c3ccccc3)CC2)nc2ccccc12 [compound 7] was run?
The IC50 was > 0.2 µM.

Which IC50 does the source give for CCc1cccc(CC)c1NC(=O)N[C@H]1CC[C@@H](Nc2nc(N(C)C)c3ccccc3n2)CC1 [compound 85, N-(2,6-diethylphenyl)-N′-(cis-4-{[4-(dimethylamino)quinazolin-2-yl]amino}cyclohexyl)urea] here?
The IC50 was < 0.05 µM.

How did the IC50 turn out when CN(C)c1nc(N[C@H]2CC[C@@H](NC(=O)Nc3cccc(Cl)c3)CC2)nc2ccccc12 [compound 14] was run?
Its IC50 is > 0.2 µM.

With Cc1cccc(C(C)C)c1NC(=O)N[C@H]1CC[C@@H](Nc2nc(N(C)C)c3ccccc3n2)CC1 [compound 102, N-(cis-4-{[4-(dimethylamino)quinazolin-2-yl]amino}cyclohexyl)-N′-(2-isopropyl-6-methylphenyl)urea] as the molecule, how does the IC50 read?
Its IC50 is < 0.05 µM.

With CN(C)c1nc(N[C@H]2CC[C@@H](NC(=O)Nc3ccc(I)cc3)CC2)nc2ccccc12 [compound 826, N-(cis-4-{[4-(dimethylamino)quinazolin-2-yl]amino}cyclohexyl)-N′-(4-iodophenyl)urea] as the molecule, how does the IC50 read?
Its IC50 is 0.05 to 0.2 µM.

For COC(=O)c1ccc(NC(=O)N[C@H]2CC[C@@H](Nc3nc(N(C)C)c4ccccc4n3)CC2)cc1 [compound 845], which IC50 is on record?
The IC50 was > 0.2 µM.

With CN(C)c1nc(N[C@H]2CC[C@@H](NC(=O)OCC(Cl)(Cl)Cl)CC2)nc2ccccc12 [compound 865] as the molecule, how does the IC50 read?
The IC50 was > 0.2 µM.

C=C(C)c1cccc(C(C)(C)NC(=O)N[C@H]2CC[C@@H](Nc3nc(N(C)C)c4ccccc4n3)CC2)c1 [compound 40, N-(cis-4-{[4-(dimethylamino)quinazolin-2-yl]amino}cyclohexyl)-N′-[1-(3-isopropenylphenyl)-1-methylethyl]urea] was tested. Which IC50 did it give?
Its IC50 is < 0.05 µM.

How did the IC50 turn out when CN(C)c1nc(N[C@H]2CC[C@@H](CNC(=S)Nc3ccc(/N=N/c4ccccc4)cc3)CC2)nc2ccccc12 [compound 812] was run?
Its IC50 is > 0.2 µM.

CN(C)c1nc(N[C@H]2CC[C@@H](CNC(=S)Nc3cccnc3)CC2)nc2ccccc12 [compound 809] was tested. Which IC50 did it give?
The IC50 was > 0.2 µM.

Cc1cccc([N+](=O)[O-])c1NC(=O)N[C@H]1CC[C@@H](Nc2nc(N(C)C)c3ccccc3n2)CC1 [compound 110] was tested. Which IC50 did it give?
Its IC50 is > 0.2 µM.

Which IC50 does the source give for COc1ccccc1OC(=O)N[C@H]1CC[C@@H](Nc2nc(N(C)C)c3ccccc3n2)CC1 [compound 851] here?
The IC50 was > 0.2 µM.

Same assay, conditions: class by percent of control at 10^−7 M or by IC50; read-out: class

Which IC50 does the source give for CN(C)c1nc(N[C@H]2CC[C@@H](CNC(=O)C(O)c3c(F)cccc3F)CC2)nc2ccccc12 (relative stereo) [Example 1092, 2-(2,6-difluorophenyl)-N-[(cis-4-{[4-(dimethylamino)quinazolin-2-yl]amino}cyclohexyl)methyl]-2-hydroxyacetamide] here?
The IC50 was > 0.2 µM.

How did the IC50 turn out when CN(C)c1nc(N[C@H]2CC[C@@H](NC(=O)c3cccc(NC(=O)C(C)(C)C)c3)CC2)nc2ccccc12 [Example 1202, N-(cis-4-{(4-(dimethylamino)quinazolin-2-yl]amino}cyclohexyl)-3-[(2,2-dimethylpropanoyl)amino]benzamide] was run?
The IC50 was 0.05 to 0.2 µM.

Which IC50 does the source give for CN(C)c1nc(N[C@H]2CC[C@@H](CNC(=O)C(O)c3ccc(Br)cc3)CC2)nc2ccccc12 (relative stereo) [Example 1098, 2-(4-bromophenyl)-N-[(cis-4-{[4-(dimethylamino)quinazolin-2-yl]amino}cyclohexyl)methyl]-2-hydroxyacetamide] here?
The IC50 was > 0.2 µM.

How did the IC50 turn out when CN(C)c1nc(N[C@H]2CC[C@@H](NC(=O)COc3ccc(Cl)c(Cl)c3)CC2)nc2ccccc12 [Example 1075, 2-(3,4-dichlorophenoxy)-N-(cis-4-{[4-(dimethylamino)quinazolin-2-yl]amino}cyclohexyl)acetamide] was run?
Its IC50 is < 0.05 µM.

Which IC50 does the source give for CN(C)c1nc(N[C@H]2CC[C@@H](CNC(=O)C(O)c3cccc(F)c3F)CC2)nc2ccccc12 (relative stereo) [Example 1093, 2-(2,3-difluorophenyl)-N-[(cis-4-{[4-(dimethylamino)quinazolin-2-yl]amino}cyclohexyl)methyl]-2-hydroxyacetamide] here?
Its IC50 is > 0.2 µM.

For CN(C)c1nc(N[C@H]2CC[C@@H](NC(=O)c3ccc(Oc4ccc(F)c(F)c4)nc3)CC2)nc2ccccc12 [Example 1065, 6-(3,4-difluorophenoxy)-N-(cis-4-{[4-(dimethylamino)quinazolin-2-yl]amino}cyclohexyl)nicotinamide], which IC50 is on record?
Its IC50 is < 0.05 µM.
